Experimental data published in publication PMC3748009, “Novel Small-Molecule AMP-Activated Protein Kinase Allosteric Activator with Beneficial Effects in db/db Mice” (PLoS ONE, 2013).

Assays:
[1] = target: T1, recombinant human AMPK α2β1γ1 (Homo sapiens, UniProt P54619+P54646); assay: Scintillation proximity assay (SPA), AMPK activation; assay type: biochemical
T1 construct: made in house
Method: (§1) Before the SPA assay, 200 nmol/l recombinant AMPK protein (α1β1γ1, α2β1γ1, α1β2γ1, α2β2γ1, α1(1–394), α1(1–335), α1(1–312)) was constructed, expressed, purified and fully phosphorylated as described previously. The SPA reactions were performed in 96-well plates in a final volume of 50 µl containing 20 mmol/l Tris-HCl, pH 7.5, 5 mmol/l MgCl2, 1 mmol/l DTT, 2 µmol/l biotin-SAMS, 2 µmol/l ATP and 7.4×10^3 Bq/well [γ-^33P]ATP. The reactions were initiated by the addition of 50 nmol/l recombinant AMPK protein to the reaction solutions, followed by incubation at 30°C for 2 hr. The reactions were then terminated by the addition of 40 µl of stop solution containing 80 µg streptavidin-coated SPA beads per well, 50 mmol/l EDTA and 0.1% Triton X-100 in PBS, pH 7.5, followed by incubation for 1 hr. Finally, 160 µl of suspension solution containing 2.4 mol/l CsCl, 50 mmol/l EDTA and 0.1% Triton X-100 in PBS, pH 7.5, was added to the reaction solution to suspend the SPA beads completely. The SPA signals were measured in a Wallac Microbeta plate counter (PerkinElmer, Waltham, MA, USA) 30 min later.

[2] = target: T2, recombinant human AMPK α2β2γ1 (Homo sapiens, UniProt P54646); assay: as above; assay type: biochemical
T2 construct: made in house
T2 sequence (P54646 whole entry): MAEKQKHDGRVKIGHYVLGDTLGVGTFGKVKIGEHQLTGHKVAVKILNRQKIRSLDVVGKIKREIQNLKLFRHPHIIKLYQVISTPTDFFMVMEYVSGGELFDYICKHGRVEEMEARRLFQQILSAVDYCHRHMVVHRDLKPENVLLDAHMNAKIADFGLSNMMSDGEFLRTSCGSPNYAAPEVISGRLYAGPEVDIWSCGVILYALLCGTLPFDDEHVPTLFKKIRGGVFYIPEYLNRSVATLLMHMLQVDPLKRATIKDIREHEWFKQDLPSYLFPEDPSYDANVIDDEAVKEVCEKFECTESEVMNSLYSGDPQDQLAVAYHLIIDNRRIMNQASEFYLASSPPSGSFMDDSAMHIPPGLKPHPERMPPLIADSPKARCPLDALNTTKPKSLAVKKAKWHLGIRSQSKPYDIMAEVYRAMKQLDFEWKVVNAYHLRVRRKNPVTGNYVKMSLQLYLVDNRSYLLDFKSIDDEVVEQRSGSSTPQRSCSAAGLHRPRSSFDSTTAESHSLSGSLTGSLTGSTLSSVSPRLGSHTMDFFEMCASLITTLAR
T2 sequence (O43741 whole entry partner): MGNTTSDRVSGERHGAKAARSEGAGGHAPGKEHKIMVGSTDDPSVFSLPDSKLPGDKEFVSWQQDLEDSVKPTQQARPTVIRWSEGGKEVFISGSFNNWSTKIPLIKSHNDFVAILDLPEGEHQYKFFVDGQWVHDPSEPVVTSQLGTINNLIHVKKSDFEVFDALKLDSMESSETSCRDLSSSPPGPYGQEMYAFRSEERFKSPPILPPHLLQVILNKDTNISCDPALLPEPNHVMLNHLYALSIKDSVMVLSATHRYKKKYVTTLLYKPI
T2 sequence (P54619 whole entry partner): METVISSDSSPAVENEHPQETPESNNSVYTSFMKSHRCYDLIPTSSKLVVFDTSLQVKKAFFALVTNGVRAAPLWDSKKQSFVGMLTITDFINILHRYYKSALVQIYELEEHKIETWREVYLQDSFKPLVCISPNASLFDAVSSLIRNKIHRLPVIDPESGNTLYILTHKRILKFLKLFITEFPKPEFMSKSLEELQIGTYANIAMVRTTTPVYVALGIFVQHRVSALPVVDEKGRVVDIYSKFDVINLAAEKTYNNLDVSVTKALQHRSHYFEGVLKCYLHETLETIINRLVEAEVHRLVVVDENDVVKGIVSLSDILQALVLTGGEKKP
Method: as §1

[3] = target: T3, recombinant human AMPK α1β2γ1 (Homo sapiens, UniProt Q13131); assay: as above; assay type: biochemical
T3 construct: made in house
T3 sequence (Q13131 10-559 limits assumed): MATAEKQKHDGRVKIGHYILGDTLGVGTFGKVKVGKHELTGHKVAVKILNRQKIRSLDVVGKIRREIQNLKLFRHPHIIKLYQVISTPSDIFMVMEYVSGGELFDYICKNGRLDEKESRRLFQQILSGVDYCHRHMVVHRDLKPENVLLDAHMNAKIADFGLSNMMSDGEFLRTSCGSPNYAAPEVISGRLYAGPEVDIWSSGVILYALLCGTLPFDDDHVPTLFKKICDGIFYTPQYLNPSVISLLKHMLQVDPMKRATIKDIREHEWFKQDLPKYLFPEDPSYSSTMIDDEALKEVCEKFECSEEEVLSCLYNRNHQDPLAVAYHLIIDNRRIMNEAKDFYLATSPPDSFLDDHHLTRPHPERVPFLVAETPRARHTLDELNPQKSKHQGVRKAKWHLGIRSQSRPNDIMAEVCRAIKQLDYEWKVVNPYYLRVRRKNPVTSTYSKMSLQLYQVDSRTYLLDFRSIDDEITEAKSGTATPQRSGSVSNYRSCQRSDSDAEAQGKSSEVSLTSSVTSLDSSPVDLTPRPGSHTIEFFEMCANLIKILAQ
T3 sequence (O43741 whole entry partner): as the sequence (O43741 whole entry partner) above
T3 sequence (P54619 whole entry partner): as the sequence (P54619 whole entry partner) above
Method: as §1

[4] = target: T4, recombinant human AMPK α1β2γ1 (Homo sapiens, UniProt O43741+P54619+Q13131); assay: as above; assay type: biochemical
T4 construct: made in house
T4 sequence (Q13131 10-559 limits assumed): as the sequence (Q13131 10-559 limits assumed) above
T4 sequence (O43741 whole entry partner): as the sequence (O43741 whole entry partner) above
T4 sequence (P54619 whole entry partner): as the sequence (P54619 whole entry partner) above
Method: as §1

[5] = target: T5, recombinant human AMPK α2β2γ1 (Homo sapiens, UniProt O43741+P54619+P54646); assay: as above; assay type: biochemical
T5 construct: made in house
T5 sequence (P54646 whole entry): as the sequence (P54646 whole entry) above
T5 sequence (O43741 whole entry partner): as the sequence (O43741 whole entry partner) above
T5 sequence (P54619 whole entry partner): as the sequence (P54619 whole entry partner) above
Method: as §1

rat primary hepatocytes [6] = assay: Glucose production (output) in rat primary hepatocytes; assay type: cell-based; conditions: 5 hr, concentration-dependent
Text: (§2) These assays were described previously, [25].

AMPK α1β1γ1 [7] = target: T6, AMPK α1β1γ1 (Homo sapiens, UniProt P54619+Q13131+Q9Y478); assay: PP2Cα-catalyzed dephosphorylation of AMPK Thr-172; assay type: biochemical; conditions: 5 µmol/l ZLN024
Method: (§3) The dephosphorylation of AMPK was performed as described previously, [24].
Target sequence in this assay (Q13131 10-559 limits assumed): as the sequence (Q13131 10-559 limits assumed) above
Target sequence in this assay (Q9Y478 whole entry): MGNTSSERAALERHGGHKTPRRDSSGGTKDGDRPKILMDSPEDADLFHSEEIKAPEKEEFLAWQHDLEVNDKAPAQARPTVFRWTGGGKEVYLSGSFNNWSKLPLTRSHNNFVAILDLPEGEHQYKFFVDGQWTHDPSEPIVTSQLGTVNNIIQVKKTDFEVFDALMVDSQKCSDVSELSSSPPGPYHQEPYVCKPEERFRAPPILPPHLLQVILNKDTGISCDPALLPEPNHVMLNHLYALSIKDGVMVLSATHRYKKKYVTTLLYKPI
Target sequence in this assay (P54619 whole entry): as the sequence (P54619 whole entry partner) above

AMPK α2β1γ1 = AMPK α2β1γ1 (Homo sapiens, UniProt P54619+P54646+Q9Y478); assay: PP2Cα-catalyzed dephosphorylation of AMPK Thr-172; assay type: biochemical; conditions: 5 µmol/l ZLN024
Sequence of AMPK α2β1γ1 (P54646 whole entry): as the sequence (P54646 whole entry) above
Sequence of AMPK α2β1γ1 (Q9Y478 whole entry): as the sequence (Q9Y478 whole entry) above
Sequence of AMPK α2β1γ1 (P54619 whole entry): as the sequence (P54619 whole entry partner) above
Method: as §3

HeLa cells = assay: AMPK and ACC phosphorylation in HeLa cells deficient in LKB1; assay type: cell-based
Text: as §2

AMPK α1β1γ1 [8] = target: T6, AMPK α1β1γ1; assay: Scintillation proximity assay (SPA), AMPK activation; assay type: biochemical; design: made in house
Method: as §1
Target sequence in this assay (Q13131 10-559 limits assumed): as the sequence (Q13131 10-559 limits assumed) above
Target sequence in this assay (Q9Y478 whole entry partner): as the sequence (Q9Y478 whole entry) above
Target sequence in this assay (P54619 whole entry partner): as the sequence (P54619 whole entry partner) above

recombinant AMPK α1β1γ1 = recombinant AMPK α1β1γ1 (Homo sapiens, UniProt Q13131); assay: as above; assay type: biochemical; design: made in house
Sequence of recombinant AMPK α1β1γ1 (Q13131 10-559 limits assumed): as the sequence (Q13131 10-559 limits assumed) above
Sequence of recombinant AMPK α1β1γ1 (Q9Y478 whole entry partner): as the sequence (Q9Y478 whole entry) above
Sequence of recombinant AMPK α1β1γ1 (P54619 whole entry partner): as the sequence (P54619 whole entry partner) above
Method: as §1

L6 myotubes = assay: Fatty acid (palmitate) oxidation in L6 myotubes; assay type: cell-based; conditions: 4 hr treatment
Method: The assay was initiated by adding [9,10-^3H(N)]-palmitic acid (PerkinElmer, Waltham, MA, USA) to a final concentration of 250 µmol/l and 5.55×10^4 Bq per well in DMEM. After incubation with the compound for 4 hr in differentiated L6 myotubes, sample from each well was added to charcoal slurry for centrifugation and then the radioactivity was measured.

C57BKS db/db mice = assay: 5-week chronic study in db/db mice; assay type: in vivo, mouse
Text: db/db (Jackson Laboratory, BarHarbor, ME, USA) mice were bred at the Shanghai Institute of Materia Medica (Chinese Academy of Sciences, Shanghai, People's Republic of China).The animals were maintained under a 12 hr light-dark cycle with free access to water and food. Animal experiments were approved by the Animal Care and Use Committee, Shanghai Institute of Materia Medica. At 8 weeks of age, male db/db mice were randomly assigned to the various treatment groups by body weight and glucose levels (n = 6-8). The treatment groups for the 5-week chronic study were as follows: vehicle (0.5% methylcellulose), ZLN024 (15 mg/kg) and metformin (250 mg/kg). The treatments were orally administered once daily. The body weights and food intake were measured daily. After 5 weeks of treatment, the mice were killed after a final dose, and the tissues were collected for further analysis. This assay was described previously. For details on primer sequences, see Legend for Table S1. These assays were described previously, [25].

rat primary hepatocytes [9] = assay: Gene expression (real-time PCR) in rat primary hepatocytes; assay type: cell-based
Text: This assay was described previously. For details on primer sequences, see Legend for Table S1.

[10] = ZLN024 15 mg/kg/day by gavage, 5 weeks
[11] = primary hepatocytes, 21 hr incubation

T1 sequence (P54646 whole entry): as the sequence (P54646 whole entry) above
T1 sequence (Q9Y478 whole entry partner): as the sequence (Q9Y478 whole entry) above
T1 sequence (P54619 whole entry): as the sequence (P54619 whole entry partner) above

With `Cc1ccc(OCCSc2ncccn2)c(Br)c1` [ZLN024] the EC50 ([1]; SPA) was 0.95 µM, the “activation of α2β1γ1 activity” value ([1]; SPA) was 1.7 fold and the “additional activation of AMPK α2β1γ1” value ([1]; ZLN024 increased to 10 µmol/l in the presence of saturating AMP (12.5 µmol/l)) was 1.3 fold. For the same compound, the “activation of α2β2γ1 activity” value [2] was 1.6 fold, the “activation of α1β2γ1 activity” value [3] was 1.7 fold and the EC50 [4] was 1.1 µM. For the same compound, the EC50 [5] was 0.13 µM, the glucose production (rat primary hepatocytes [6]) was “obviously repressed” and the “protection of AMPK α1β1γ1 against dephosphorylation by PP2Cα” value (AMPK α1β1γ1 [7]) was “provided protection against dephosphorylation”. The “protection of AMPK α2β1γ1 against dephosphorylation by PP2Cα” value (AMPK α2β1γ1) was “provided protection against dephosphorylation”, the “phosphorylation of AMPK and ACC” value (HeLa cells; 3 hr, concentration-dependent) was “stimulated” and the “time to peak of AMPK and ACC phosphorylation” value (HeLa cells; ZLN024 20 µmol/l) was ≤ 30 min. The “time to start of increase of AMPK and ACC phosphorylation” value (HeLa cells; ZLN024 20 µmol/l) was ≤ 15 min, the EC50 (AMPK α1β1γ1 [8]) was 0.42 µM and the “activation of α1β1γ1 activity” value (recombinant AMPK α1β1γ1) was 1.5 fold. The “stimulation of palmitate oxidation” value (L6 myotubes) was 40%, the “ACC phosphorylation in abdominal muscle and liver tissue” value (C57BKS db/db mice; 15 mg/kg/day, 5 weeks) was “increased” and the “AMPK phosphorylation in abdominal muscle and liver tissue” value (C57BKS db/db mice; 15 mg/kg/day, 5 weeks) was “not affected”. The “body weight compared with the vehicle group” value (C57BKS db/db mice; [10]) was “no significant alteration”, the “food intake compared with the vehicle group” value (C57BKS db/db mice; [10]) was “no significant alteration” and the “reduction of fasting blood glucose” value (C57BKS db/db mice; ZLN024 15 mg/kg/day, 4 weeks, fasted 6 hr, not significant with ANOVA) was 15%. The “abdominal muscle expression of fatty acid oxidation genes CPT-1, MCAD and LCAD” value (C57BKS db/db mice; ZLN024 15 mg/kg/day, 5 weeks) was “significantly upregulated”, the “abdominal muscle expression of mitochondrial biogenesis genes PGC-1α, cyto-c and ATPase” value (C57BKS db/db mice; ZLN024 15 mg/kg/day, 5 weeks) was “upregulated” and the “decrease of liver total cholesterol levels” value (C57BKS db/db mice; ZLN024 15 mg/kg/day, 5 weeks) was 20%. For the same compound, the “liver expression of PEPCK” value (C57BKS db/db mice; ZLN024 15 mg/kg/day, 5 weeks) was “remained unchanged”, the “liver expression of anabolic genes FAS, mtGPAT and G6Pase” value (C57BKS db/db mice; ZLN024 15 mg/kg/day, 5 weeks) was “significantly reduced” and the “liver expression of catabolic genes CPT1, LCAD, PDK4 and AOX” value (C57BKS db/db mice; ZLN024 15 mg/kg/day, 5 weeks) was “mildly increased”. The “liver/body weight reduction vs vehicle” value (C57BKS db/db mice; ZLN024 15 mg/kg/day, 5 weeks) was 9%, the “reduction of liver triacylglycerol levels” value (C57BKS db/db mice; ZLN024 15 mg/kg/day, 5 weeks) was “approximately 45%” and the “liver/body weight (wt/wt)” value (C57BKS db/db mice; ZLN024 15 mg/kg/day, 5 weeks (vehicle 5.3%)) was 4.8%. For the same compound, the “reduction in glucose tolerance AUC” value (C57BKS db/db mice; ZLN024 15 mg/kg/day, after 4 weeks, i.p. glucose load 1.5 g/kg) was “approximately 15%”, the “mRNA level of G6Pase” value (rat primary hepatocytes [9]; [11]) was “decreased significantly” and the “mRNA level of PEPCK” value (rat primary hepatocytes [9]; [11]) was “decreased significantly”. The “gene expression of fatty acid synthase (FAS)” value (rat primary hepatocytes [9]; rat primary hepatocytes, 21 hr) was “significantly decreased”.
